Assay results taken from US20250221920A1, “Antioxidant Compositions” (THE BOOTS COMPANY PLC, priority 2022, published 2025).

Test: Total Antioxidant Capacity (TAC) assay, Cell Biolabs kit, copper ion reagent, absorbance at 490 nm
Format: biochemical
Conditions: triplicate
Procedure: Total antioxidant capacity (TAC) was determined using a kit (Cell Biolabs, Inc) as follows; the test samples were diluted in water and a buffer to reach a final antioxidant agent to buffer ratio ranging from 1:1 to 1:1,000,000. 20 ul of test sample or control (ascorbic acid or green tea) were added to the wells of 96 well plate, followed by 180 μL of 1X Reaction Buffer (provided with the kit). The absorbance of the reaction mix in each well was measured at 490 nm to get an initial reading. 50 μL of the 1X Copper Ion Reagent (provided with the kit) were added to each well to initiate the reaction. The reaction was allowed to carry on for 5 minutes on an orbital shaker and 50 μL of 1X Stop Solution (provided with the kit) added to each well to terminate the reaction. The colour change was assessed using a plate reader at 490 nm.
The stronger the colour change at the end of the reaction, the higher the spectrophotometric value, and the higher the antioxidant capacity of the antioxidant agents.
21 antioxidant compounds were tested in triplicate at antioxidant: buffer ratios ranging from 1:1 to 1:1,000,000.
The actual TAC of each of these compounds was calculated using the TAC assay described above, and compared with the predicted values to determine the % difference in TAC.

**Q.** Which “Total Antioxidant Capacity (TAC)” value (Antioxidant:Buffer 1:1 (concentration 1)) does the source give for Dimethylmethylmethoxy chromanol here?
**A.** 1.839

**Q.** What about the “Total Antioxidant Capacity (TAC)” value (Antioxidant:Buffer 1:10 (concentration 0.1)) of the same substance?
**A.** 1.807

**Q.** What about the “Total Antioxidant Capacity (TAC)” value (Antioxidant:Buffer 1:100 (concentration 0.01)) of the same substance?
**A.** 1.824
